# Source: patent US20240238246A1, “METHODS FOR PREVENTING OR SLOWING THE PROGRESSION OF COGNITIVE DECLINE OR IMPAIRMENT IN SUBJECTS” (AGENEBIO, INC., priority 2023, published 2024)
# Tests used:
# [1] = system: subjects with MCI due to Alzheimer's disease; experiment: Phase IIb placebo-controlled 78-week study, Clinical Dementia Rating-Sum of Boxes (CDR-SB); assay type: in vivo, human
# Method: (§1) This example describes a phase IIb multicenter, randomized, double-blind, placebo-controlled study evaluating the efficacy and safety of a low-dose levetiracetam, 220 mg, extended-release tablet on slowing progression of MCI due to Alzheimer's disease (prodromal Alzheimer's disease), the results being evaluated using the well-recognized and accepted Clinical Dementia Rating-Sum of Boxes (CDR-SB) scores.
# (§2) Subjects for this study were between 55 and 85 years old (inclusive) in good general health, willing and able to consent and to participate for the duration of the study, having an eighth-grade education or good work history sufficient to exclude mental retardation, having visual and auditory acuity adequate for neuropsychological testing, and having proficient fluency of the native local language to participate in all the neuropsychological test assessments. The clinical assessments of 63 participants were used for the analyses.
# Blood samples were taken from each subject to determine APOE4 carrier status. Genomic DNA was prepared from the blood samples according to standard procedures. Quality of the genomic DNA samples were quantified using Optical Density and DNA purity was calculated. Using extracted genomic DNA as a template, locus specific DNA fragments were amplified by polymerase chain reaction (PCR). Purified PCR products were used as templates for sequencing reactions. According to the chain terminating methodology of Sanger et al (Sanger F, Nicklen S, Coulson A R. DNA sequencing with chain-terminating inhibitors. Proc Natl Acad Sci USA. 1977 December; 74(12):5463-7), analysis of DNA sequence was based on the termination of a growing DNA strand due to incorporation of a dye labeled ddNTP by the DNA polymerase. The resulting dye-labeled product was detected using an automated sequencing platform. Data was analyzed using the software SEQPATIENT from JSI-medical Systems®.
# (§3) The study included up to a 5-week screening period consisting of 3 visits and a 78-week treatment period consisting of 10 visits (1 baseline visit, 3 telephone call visits, and 6 clinic visits). The primary endpoint of the study was the analysis of the change in CDR-SB score from baseline to 78 weeks. Secondary endpoints included the analysis of the change in Functional Activities Questionnaire (FAQ) score from baseline to 78 weeks. Subjects received a low-dose levetiracetam, 220 mg, extended-release tablet or placebo in the morning in identically appearing extended release, one unit oral dosage forms.
# CDR-SB testing was performed using standard methods. Briefly, subjects were tested using the following six categories or “boxes”: Memory, Orientation, Judgment and Problem Solving, Community Affairs, Home and Hobbies, and Personal Care. CDR-SB scores were calculated by adding the box scores. The total score ranges from 0 to 18 with a higher scores indicating more impairment). Absolute values and changes from baseline in CDR-SB were summarized using descriptive statistics and presented by APOE4 non-carrier status. Table 3 summarizes the statistical analysis wherein each cell contains a point estimate followed by a 95% Confidence Interval (CI).
# [2] = system: subjects with MCI due to Alzheimer's disease; experiment: Phase IIb placebo-controlled 78-week study, Functional Activities Questionnaire (FAQ) score; assay type: in vivo, human
# Method: as §1, §2, §3
# FAQ scores were obtained to measure the functional ability of individuals over time. Briefly, FAQ measures instrumental activities of daily life, such as preparing meals and balancing a check book as these functional changes are found earlier in the dementia process compared to more basic activities. The Questionnaire comprises 10 questions which are answered using a 0-3 scoring system for each question with 0 being normal and 3 being dependent on someone else to complete the task. […]
# [3] = system: entorhinal cortex (ERC) and Brodmann area 35 (BA35) volume in APOE-4 non-carriers; experiment: Volumetric MRI of medial temporal lobe subregions (ASHS-T1 segmentation) in the phase IIb study; assay type: in vivo, human; conditions: APOE-4 non-carriers (n=26), baseline to week 78
# Text: Brain regions of interest were selected prior to the trial apriori based on the location of post-mortem tau accumulation in the early stage of AD (Braak et al., Acta Neuropathologica, 112(4): 389-404 (2006); Braak & Braak, Acta Neuropathologica, 80(5): 479-486 (1990)) and robust atrophy in entorhinal cortex volume in the AD. For this purpose, the Automated Segmentation of Hippocampal Subfields (ASHS) software (Xie et al., Hum Brain Mapp. 40:3431-3451 (2019)) was used. Regions provided by this software include the left and right entorhinal cortex (ERC), Brodmann area 35 (BA35), which largely overlaps with TEC (Braak et al., Acta Neuropathologica, 112(4): 389-404 (2006); Braak & Braak, Acta Neuropathologica, 80(5): 479-486 (1990))) and includes a portion of the perirhinal cortex and BA36, which predominantly encompasses the perirhinal cortex (Xie et al., 2019). High-resolution T1-weighted MRI images of the subjects' brain were collected at baseline and 78 weeks using an MRI scanner. Automatic segmentation was performed using the T1-weighted MRI images using the ASHS-T1 open-source software and see, also Xie et al., Hum Brain Mapp. 40:3431-3451 (2019). […] Volumetric and thickness measurements of the ERC and BA35 were extracted for each subject. […]
# [4] = cited from earlier work
# [5] = APOE-4 non-carrier subgroup (n=26)
smiles,measurement,setting,value
"CC[C@@H](C(N)=O)N1CCCC1=O [levetiracetam, (2S)-2-(2-oxopyrrolidin-1-yl)butanamide]","CDR-SB Treatment Effect (Difference) versus placebo (point estimate, 95% CI)","[1]; APOE4 non-carriers (n = 63), 78 weeks","−0.56 (CI: −1.90, 0.47)"
same,"CDR-SB change score (point estimate, 95% CI)","[1]; APOE4 non-carriers (n = 63), baseline to 78 weeks, 220 mg extended-release tablet","0.96 (CI: 0.08, 2.01)"
same,Mean CDR-SB change score at Week 78,[1]; APOE-4 carrier subgroup (n=54),0.95
same,Estimated average treatment effect on CDR-SB change score,"[1]; APOE-4 carrier subgroup, Week 78, versus placebo",−0.10
same,Mean CDR-SB change from baseline at Week 78,[1]; [5],0.68
same,Estimated average treatment effect on CDR-SB change score,"[1]; APOE-4 non-carrier subgroup, Week 78, versus placebo",−0.45
same,Mean CDR-SB change score at Week 78,[1]; entire study population,1.12
same,Estimated average treatment effect on CDR-SB change score,"[1]; entire study population, Week 78, versus placebo (p=0.71)",−0.10
same,Mean FAQ total score change from baseline to week 78,[2]; APOE-4 carrier subgroup (n=54),5
same,Mean FAQ total score change from baseline to week 78,[2]; [5],1.8
same,Estimated mean FAQ score from baseline at 78 weeks (95% CI),[2]; entire study population,"3.82 (95% CI: 2.10, 5.17)"
same,Left ERC mean volume change,[3]; p=0.048 vs placebo,−1.878%
same,Right BA35 mean volume change,[3]; p=0.094 vs placebo,−0.789%
same,Time of peak plasma concentrations,[4]; following oral administration,about 1 hour
same,Plasma half-life,[4]; in vivo,approximately 7±1 hour
same,Time to achieve steady state,[4]; multiple twice-daily dosing,2 days
same,Absorption after oral administration,[4]; oral administration,rapidly and almost completely absorbed
same,Effect of food on bioavailability,[4]; oral administration,not affected by food
